Read-outs that look alike come from different tables or passages of the source.
How the values were obtained:
HCV replicon cells = assay: HCV replicon FRET assay; type: cell-based; details: HCV replicon cells, FRET assay, read-out: EC50
From the text: FRET Assay Preparation. To perform the HCV FRET screening assay, 96-well cell culture plates were used. The FRET peptide (Anaspec, Inc.) (Taliani et al., Anal. Biochem. 1996, 240, 60-67) contains a fluorescence donor, EDANS, near one end of the peptide and an acceptor, DABCYL, near the other end. The fluorescence of the peptide is quenched by […] resonance energy transfer (RET) between the donor and the acceptor, but as the NS3 protease cleaves the peptide the products are released from RET quenching and the fluorescence of the donor becomes apparent. The assay reagent was made as follows: 5× cell Luciferase cell culture lysis reagent from Promega (#E153A) diluted to 1× with dH2O, NaCl added to 150 mM final, the FRET peptide diluted to 20 uM final from a 2 mM stock.
To prepare plates, HCV replicon cells, with or without a Renilla luciferase reporter gene, were trypsinized and placed into each well of a 96-well plate with titrated test compounds added in columns 3 through 12; columns 1 and 2 contained a control compound (HCV protease inhibitor), and the bottom row contained cells without compound. The plates were then placed in a CO2 incubator at 37° C.
Assays. Subsequent to addition of the test compounds described above (FRET Assay Preparation), at various times the plate was removed and Alamar blue solution (Trek Diagnostics, #00-100) was added per well as a measure of cellular toxicity. After reading in a Cytoflour 4000 instrument (PE Biosystems), plates were rinsed with PBS and then used for FRET assay by the addition of 30 ul of the FRET peptide assay reagent described above (FRET Assay Preparation) per well. The plate was then placed into the Cytoflour 4000 instrument which had been set to 340 excite/490 emission, automatic mode for 20 cycles and the plate read in a kinetic mode. Typically, the signal to noise using an endpoint analysis after the reads was at least three-fold. Alternatively, after Alamar blue reading, plates were rinsed with PBS, 50 ul of DMEM (high glucose) without phenol red was added and plates were then used for luciferase assay using the Promega Dual-Glo Luciferase Assay System.
Compound analysis was determined by quantification of the relative HCV replicon inhibition and the relative cytotoxicity values. To calculate cytoxicity values, the average Alamar Blue fluorescence signals from the control wells were set as 100% non-toxic. The individual signals in each of the compound test wells were then divided by the average control signal and multiplied by 100% to determine […]. To calculate the HCV replicon inhibition values, an average background value was obtained from the two wells containing the highest amount of HCV protease inhibitor at the end of the assay period. These numbers were similar to those obtained from naïve Huh-7 cells.
The background numbers were then subtracted from the average signal obtained from the control wells and this number was used as 100% activity. The individual signals in each of the compound test wells were then divided by the averaged control values after background subtraction and multiplied by 100% to determine percent activity. EC50 values for a protease inhibitor titration were calculated as the concentration which caused a 50% reduction in FRET or luciferase activity. The two numbers generated for the compound plate, percent cytoxicity and percent activity were used to determine compounds of interest for further analysis.

[1] = target: T1, HCV NS5B RdRp genotype 1b (Hepatitis C virus genotype 1b, UniProt Q9WMX2); assay: Modified HCV NS5B RdRp enzyme assay (preincubation protocol); type: biochemical; details: HCV NS5B RdRp genotype 1b; preincubation protocol; read-out: IC50
T1 construct: The protein was expressed with an 18 amino acid C-terminal truncation to enhance the solubility; made in house; host or cells: E. coli BL21(DE3)
Method: HCV NS5B RdRp cloning, expression, and purification. The cDNA encoding the NS5B protein of HCV, genotype 1b, was cloned into the pET21a expression vector. The protein was expressed with an 18 amino acid C-terminal truncation to enhance the solubility. The E. coli competent cell line BL21(DE3) was used for expression of the protein. Cultures were grown at 37° C. for ˜4 hours until the cultures reached an optical density of 2.0 at 600 nm. The cultures were cooled to 20° C. and induced with 1 mM IPTG. Fresh ampicillin was added to a final concentration of 50 μg/ml and the cells were grown overnight at 20° C.
Cell pellets (3 L) were lysed for purification to yield 15-24 mgs of purified NS5B. The lysis buffer consisted of 20 mM Tris-HCl, pH 7.4, 500 mM NaCl, 0.5% triton X-100, 1 mM DTT, 1 mM EDTA, 20% glycerol, 0.5 mg/ml lysozyme, 10 mM MgCl2, 15 ug/ml deoxyribonuclease I, and Complete TM protease inhibitor tablets (Roche). After addition of the lysis buffer, frozen cell pellets were resuspended using a tissue homogenizer. To reduce the viscosity of the sample, aliquots of the lysate were sonicated on ice using a microtip attached to a Branson sonicator. The sonicated lysate was centrifuged at 100,000×g for 1 hr at 4° C. and filtered through a 0.2 μm filter unit (Corning).
The protein was purified using three sequential chromatography steps: Heparin sepharose CL-6B, polyU sepharose 4B, and Hitrap SP sepharose (Pharmacia). The chromatography buffers were identical to the lysis buffer but contained no lysozyme, deoxyribonuclease I, MgCl2 or protease inhibitor and the NaCl concentration of the buffer was adjusted according to the requirements for charging the protein onto the column. Each column was eluted with a NaCl gradient which varied in length from 5-50 column volumes depending on the column type. After the final chromatography step, the resulting purity of the enzyme is >90% based on SDS-PAGE analysis. The enzyme was aliquoted and stored at −80° C.
Standard HCV NS5B RdRp enzyme assay. HCV RdRp genotype 1b assays were run in a final volume of 60 μl in 96 well plates (Costar 3912). The assay buffer is composed of 20 mM Hepes, pH 7.5, 2.5 mM KCl, 2.5 mM MgCl2, 1 mM DTT, 1.6 U RNAse inhibitor (Promega N2515), 0.1 mg/ml BSA (Promega R3961), and 2% glycerol. All compounds were serially diluted (3-fold) in DMSO and diluted further in water such that the final concentration of DMSO in the assay was 2%. HCV RdRp genotype 1b enzyme was used at a final concentration of 28 nM. A polyA template was used at 6 nM, and a biotinylated oligo-dT12 primer was used at 180 nM final concentration. Template was obtained commercially (Amersham 27-4110). Biotinylated primer was prepared by Sigma Genosys. 3H-UTP was used at 0.6 μCi (0.29 μM total UTP). Reactions were initiated by the addition of enzyme, incubated at 30° C. for 60 min, and stopped by adding 25 μl of 50 mM EDTA containing SPA beads (4 μg/μl, Amersham RPNQ 0007). Plates were read on a Packard Top Count NXT after >1 hr incubation at room temperature.
Modified HCV NS5B RdRp enzyme assay. A modified enzyme assay was performed essentially as described for the standard enzyme assay except for the following: The biotinylated oligo dT12 primer was precaptured on streptavidin-coated SPA beads by mixing primer and beads in assay buffer and incubating at room temperature for one hour. Unbound primer was removed after centrifugation. The primer-bound beads were resuspended in 20 mM Hepes buffer, pH 7.5 and used in the assay at final concentrations of 20 nM primer and 0.67 μg/μl beads. Order of addition in the assay: enzyme (14 nM) was added to diluted compound followed by the addition of a mixture of template (0.2 nM), 3H-UTP (0.6 μCi, 0.29 μM), and primer-bound beads, to initiate the reaction; concentrations given are final. Reactions were allowed to proceed for 4 hours at 30° C.
IC50 values for compounds were determined using seven different [I]. […]

T1 sequence (Q9WMX2 2420-2992): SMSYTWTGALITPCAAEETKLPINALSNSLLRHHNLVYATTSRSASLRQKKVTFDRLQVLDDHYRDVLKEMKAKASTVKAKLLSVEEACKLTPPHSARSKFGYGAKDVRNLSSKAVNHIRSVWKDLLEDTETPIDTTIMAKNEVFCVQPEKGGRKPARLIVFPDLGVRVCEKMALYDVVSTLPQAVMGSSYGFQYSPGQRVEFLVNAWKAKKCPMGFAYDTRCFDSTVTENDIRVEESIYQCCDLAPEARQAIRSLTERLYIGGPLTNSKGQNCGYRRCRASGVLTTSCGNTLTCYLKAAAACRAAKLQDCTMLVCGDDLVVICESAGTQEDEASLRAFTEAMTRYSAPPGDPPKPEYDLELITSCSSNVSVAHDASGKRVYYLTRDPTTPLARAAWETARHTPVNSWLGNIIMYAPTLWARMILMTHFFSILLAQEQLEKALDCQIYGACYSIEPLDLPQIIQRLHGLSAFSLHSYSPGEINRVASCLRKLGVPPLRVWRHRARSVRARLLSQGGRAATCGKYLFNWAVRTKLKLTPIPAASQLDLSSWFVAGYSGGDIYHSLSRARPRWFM

| SMILES | EC50 (HCV replicon cells; Hepatitis C virus) | IC50 [1] | EC50 (HCV replicon cells) |
| --- | --- | --- | --- |
| CCS(=O)(=O)C1Cc2ccccc2-c2c(C3CCCCC3)c3ccc(C(=O)NS(=O)(=O)N(C)C)cc3n2C1 (centres unmarked) | 20 to 1000 nM | 20 to 1000 nM |  |
| COc1ccc2c(c1)C1CC1(S(=O)(=O)N1C3CC1CN(C)C3)Cn1c-2c(C2CCCCC2)c2ccc(C(=O)NS(=O)(=O)C3CC3)cc21 (centres unmarked) | 20 to 1000 nM | 20 to 1000 nM |  |
| COc1ccc2c(c1)C1CC1(S(=O)(=O)N1C3CC1CN(C)C3)Cn1c-2c(C2CCCCC2)c2ccc(C(=O)NS(=O)(=O)N3CCOCC3)cc21 (centres unmarked) | 20 to 1000 nM | 20 to 1000 nM |  |
| COc1ccc2c(c1)C1CC1(S(=O)(=O)N1CCC1)Cn1c-2c(C2CCCCC2)c2ccc(C(=O)NS(=O)(=O)N3CCOCC3)cc21 (centres unmarked) | 20 to 1000 nM | 20 to 1000 nM |  |
| COc1ccc2c(c1)C1CC1(S(=O)(=O)N1C3CC1CN(C)C3)Cn1c-2c(C2CCCCC2)c2ccc(C(=O)NS(=O)(=O)C(C)C)cc21 (centres unmarked) | 20 to 1000 nM | 20 to 1000 nM |  |
| COc1ccc2c(c1)C1CC1(S(=O)(=O)N1CCN3CCC1CC3)Cn1c-2c(C2CCCCC2)c2ccc(C(=O)NS(=O)(=O)C(C)C)cc21 (centres unmarked) | 20 to 1000 nM | 20 to 1000 nM |  |
| COc1ccc2c(c1)C1CC1(S(=O)(=O)N1CCN3CCC1CC3)Cn1c-2c(C2CCCCC2)c2ccc(C(=O)NS(=O)(=O)N(C)C)cc21 (centres unmarked) | 20 to 1000 nM | 20 to 1000 nM |  |
| CCN1CC2CC1CN2S(=O)(=O)C12CC1c1cc(OC)ccc1-c1c(C3CCCCC3)c3ccc(C(=O)NS(=O)(=O)C(C)C)cc3n1C2 (centres unmarked) | 20 to 1000 nM | 20 to 1000 nM |  |
| CCN1CC2CC1CN2S(=O)(=O)C12CC1c1cc(OC)ccc1-c1c(C3CCCCC3)c3ccc(C(=O)NS(=O)(=O)N4CCOCC4)cc3n1C2 (centres unmarked) | 20 to 1000 nM | 20 to 1000 nM |  |
| CCN1CC2CC1CN2S(=O)(=O)C12CC1c1cc(OC)ccc1-c1c(C3CCCCC3)c3ccc(C(=O)NS(=O)(=O)N(C)C)cc3n1C2 (centres unmarked) | 20 to 1000 nM | 20 to 1000 nM |  |
| COC[C@@H]1CN(S(=O)(=O)C23CC2c2cc(OC)ccc2-c2c(C4CCCCC4)c4ccc(C(=O)NS(=O)(=O)C(C)C)cc4n2C3)CCO1 (some centres unmarked) | 20 to 1000 nM | 20 to 1000 nM |  |
| COc1ccc2c(c1)C1CC1(S(=O)(=O)N1CCN3CCCC3C1)Cn1c-2c(C2CCCCC2)c2ccc(C(=O)NS(=O)(=O)N3CCOCC3)cc21 (centres unmarked) [drawing 64] | 20 to 1000 nM | 20 to 1000 nM |  |
| COc1ccc2c(c1)C1CC1(S(=O)(=O)N1CCN3CCCC3C1)Cn1c-2c(C2CCCCC2)c2ccc(C(=O)NS(=O)(=O)N3CCOCC3)cc21 (centres unmarked) [drawing 65] |  | 20 to 1000 nM | 20 to 1000 nM |

— patent US7456167B2, “Cyclopropyl fused indolobenzazepine HCV NS5B inhibitors” (Bristol-Myers Squibb Company, priority 2006, dated 2008)
